We go through 42 molecules from patent US10975063B2, “Compound, and production method thereof, and methods of treatment using the compound” (ABIVAX, priority 2009, dated 2021).

SMILES strings stand for the structures.

For the assay, the system named is LMNA aberrant splicing (MutLMNA-luc cell line). Briefly: Luciferase assay for repression of LMNA aberrant splicing in stable 293 MutLMNA-luc cell line (293FLP LMNA LUC cells #8). The assay is classed as cell-based. The following applies: 48 hours, compared to control untreated MutLMNA-luc cell line, read-out: Increase of luciferase activity. From the text: Advantage has been taken of the luciferase system. The luciferase assay is an extremely sensitive and rapid assay. Linear results are seen over at least eight orders of magnitude of enzyme concentration. Moreover, the luciferase assay is well suited for high-throughput applications. To conduct a Mid-throughput screening (MTS) for compounds repressing LMNA aberrant splicing, we have constructed a plasmid in which exon 11, intron 11 and part of exon 12 of LMNA gene were fused with luciferase cDNA (FIG. 2). Both wild type (WtLMNA-luc)(SEQ ID NO: 1) and mutant (MutLMNA-luc)(SEQ ID NO: 2) substrate harbouring exon 11 mutation have been constructed. In these constructs we have generated a single initiation codon in exon 11 such as correct splicing will lead to luciferase expression, while aberrant splicing will skip the initiation codon and thereby prevent luciferase expression. After transfection in HeLa cells, Luciferase assays (FIG. 2B) and RT-PCR (FIG. 2C) indicate that WtLMNA-luc produces predominantly wild type splicing and large amount of luciferase activity, whereas MutLMNA-luc recapitulate the aberrant splicing profile with reduced luciferase expression (FIGS. 2 B and C, compare Wt and Mut). In order to use this system in MTS, we have generated a stable 293 cell lines containing a single integrated copy of luciferase reporter containing LMNA mutation (MutLMNA-luc cell line) using the flp system from INVITROGEN. This system allows us to perform a MTS for compounds able to enhance luciferase activity.
LMNA sequences (1278 bp of exon 11, intron 11 and 46 bp of […]) were PCR-amplified from either control or patient's cells genomic DNA with specific primer PCR fragments were purified with Concert Rapid PCR purification system (Invitrogen) and subcloned at the BamHI and EcoRI restriction sites of the pSppβm3 S1 plasmid containing the βGlobin cassette (Labourier et al., 1999—Recognition of exonic splicing enhancer sequences by the Drosophila splicing repressor RSF1. Nucleic Acids Res. 27, 2377-2386) to give the βGlo3S1LMNAwt and βGlo3S1LMNAmut constructs. The chimeric (3Glo-LMNA sequences were then inserted into the pcDNA3.1D/V5-His-TOPO vector (Invitrogen) to be used in transfection and in vitro splicing experiments. A single initiation codon ATG was kept in exon 11 of LMNA and LMNA sequences described above were fused at their 3′ end to Fyrefly luciferase cDNA (LMNAlucWT) in order that removal of intron 11 generates a transcript that encode a fusion protein harbouring luciferase activity, whereas usage of the cryptic splice site of mutated exon 11 (LMNAlucMut) will remove the initiation codon preventing luciferase expression. Both sequences were cloned in pcDNA3 Flp-In vector (Invitrogen).
A stable 293 cell line containing a single copy of LMNAlucMut minigene was obtained using the Flp-In system from (Invitrogen) according to manufacture procedure. Several clones were obtained and only one clone was used to screen the whole chemical library (293FLP LMNA LUC cells #8).
In a 96 Well Plate sterile, V-shape one put […] of drug compounds at 50 mM and then add 49.5 μl of 10% DMSO.
One pipets […] of drug at 500 μM and adds 200 μL of DMEM+Hygromycin B. At this stage the concentration of drug compound is 10 μM. One shares out 100 μl in a 96 Well Microplate sterile, flat bottom (further called luciferase plate) and 50 μl in other one (further called toxicity plate).
One washes 293FLP LMNA LUC cells once with D-PBS then adds 1 ml trypsin EDTA. Incubation at 37° C. for 2-3 minutes is proceeded. Then one adds 9 ml DMEM (with 10% FCS, P/S).
Cell concentration is brought at 10^5 cells per ml with DMEM+Hygromycin B to have 10^4 cells per 100 μl.
100 μl of suspension cells is added (at 10^4 cells per 100 μl) so final concentration of compounds is […].
Medium of the wells is gently removed then washed once by adding slowly 150 μl of D-PBS 1×. D-PBS is removed. 40 μl of PLB 1× is added and incubated at RT for 30 minutes. […]

Regarding `O=C(O)c1ccnc(Nc2ccc3ccccc3n2)c1` [Compound 2, 2-(Quinolin-2-ylamino)-isonicotinic acid], the fold induction at 5 µM worked out at 3.77. The value for `Cc1ccnc(Nc2ccc3ccccc3n2)c1` [Compound 3, (4-Methyl-pyridin-2-yl)-quinolin-2-yl-amine] was 4.54; that for `c1ccc(Nc2ccc3ccccc3n2)nc1` [Compound 4, Pyridin-2-yl-quinolin-2-yl-amine] was 4.43. The value for `O=C(O)c1ccnc(Nc2ccc3cccc(Cl)c3n2)c1` [Compound 5, 2-(8-Chloro-quinolin-2-ylamino)-isonicotinic acid] was 2.02; that for `N#Cc1ccc(Nc2ccc3ccccc3n2)nc1` [Compound 7, 6-(Quinolin-2-ylamino)-nicotinonitrile] was 3.33. The value for `FC(F)(F)Oc1ccc(Nc2ccc3ccccc3n2)cc1` [Compound 8, Quinolin-2-yl-(4-trifluoromethoxy-phenyl)-amine] was 3.35; that for `c1ccc(Nc2cnc3ccccc3c2)nc1` [Compound 9, Pyridin-2-yl-quinolin-3-yl-amine] was 2.47. On to `COc1cccnc1Nc1cnc2ccccc2c1` [Compound 10, (3-Methoxy-pyridin-2-yl)-quinolin-3-yl-amine], for which the fold induction at 5 µM stood at 2.01. The value for `Cc1ccc(Nc2cnc3ccccc3c2)nc1` [Compound 13, (5-Methyl-pyridin-2-yl)-quinolin-3-yl-amine] was 3.46; that for `FC(F)(F)c1ccc(Nc2ccc3ncccc3c2)nc1` [Compound 15, Quinolin-6-yl-(5-trifluoromethyl-pyridin-2-yl)-amine] was 2.17.

As to `Cc1cccc(Nc2ccc3ncccc3c2)n1` [Compound 16, (6-Methyl-pyridin-2-yl)-quinolin-6-yl-amine], the fold induction at 5 µM amounted to 4.56. Under `Cc1cccc(Nc2ccc3ccccc3n2)n1` [Compound 17, N-(6-methylpyridin-2-yl)quinolin-2-amine] stands 3.66.

For the molecule `Cc1cccc(Nc2ccc3cccc(Cl)c3n2)n1` [Compound 18, 8-chloro-N-(6-methylpyridin-2-yl)quinolin-2-amine], the fold induction at 5 µM was found to be 2.85.

Take `Cc1ccnc(Nc2ccc3cc(Cl)ccc3n2)c1` [Compound 25, 6-chloro-N-(4-methylpyridin-2-yl)quinolin-2-amine]: the fold induction at 5 µM was 3.49. The value for `Cc1cccc(Nc2ccc3cc(Cl)ccc3n2)n1` [Compound 26, 6-chloro-N-(6-methylpyridin-2-yl)quinolin-2-amine] was 6.2; that for `O=[N+]([O-])c1cccnc1Nc1ccc2ccccc2n1` [Compound 28, N-(3-nitropyridin-2-yl)quinolin-2-amine] was 2.99. Regarding `Cc1cccnc1Nc1ccc2ccccc2n1` [Compound 31, N-(3-methylpyridin-2-yl)quinolin-2-amine], the fold induction at 5 µM is 5.07. In the case of `Cc1ccc(Nc2ccc3ccccc3n2)nc1` [Compound 32, N-(5-methylpyridin-2-yl)quinolin-2-amine], the fold induction at 5 µM stood at 2.96. Under `N#Cc1ccnc(Nc2ccc3ccccc3n2)c1` [Compound 33, 2-(quinolin-2-ylamino)isonicotinonitrile] stands 2.14. Under `FC(F)(F)c1ccc(Nc2ccc3ccccc3n2)nc1` [Compound 34, N-(5-(trifluoromethyl)pyridin-2-yl)quinolin-2-amine] stands 4.18; under `Cc1cccnc1Nc1ccc2cccc(Cl)c2n1` [Compound 35, 8-chloro-N-(3-methylpyridin-2-yl)quinolin-2-amine], 2.74; under `Cc1ccc(Nc2ccc3cccc(Cl)c3n2)nc1` [Compound 36, 8-chloro-N-(5-methylpyridin-2-yl)quinolin-2-amine], 3.06. Under `COc1cccnc1Nc1ccc2ccccc2n1` [Compound 38, N-(3-methoxypyridin-2-yl)quinolin-2-amine] stands 5.81; under `O=[N+]([O-])c1ccc(Nc2ccc3ccccc3n2)nc1` [Compound 39, N-(5-nitropyridin-2-yl)quinolin-2-amine], 4.29; under `Fc1ccc(Nc2ccc3ccccc3n2)nc1` [Compound 41, N-(5-fluoropyridin-2-yl)quinolin-2-amine], 3.32. As for `FC(F)(F)c1cccc(Nc2ccc3ccccc3n2)n1` [Compound 42, N-(6-(trifluoromethyl)pyridin-2-yl)quinolin-2-amine], the fold induction at 5 µM stood at 3.87. In the case of `COC(=O)c1ccc(Nc2ccc3ccccc3n2)nc1` [Compound 59, methyl 6-(quinolin-2-ylamino)nicotinate], the fold induction at 5 µM was found to be 2.49. For the molecule `COC(=O)c1ccc(Nc2nc3ccccc3cc2C)nc1` [Compound 61, methyl 6-[(3-methylquinolin-2-yl)amino]pyridine-3-carboxylate], the fold induction at 5 µM was determined as 2.04. Under `FC(F)(F)Oc1cccc(Nc2ccc3ccccc3n2)c1` [Compound 83, N-[3-(trifluoromethoxy)phenyl]quinolin-2-amine] stands 2.74; under `c1ccc(Oc2ccc(Nc3ccc4ccccc4n3)cc2)cc1` [Compound 102, N-(4-phenoxyphenyl)quinolin-2-amine], 2.06; under `Cc1cccc(Nc2cnc3ccccc3c2)n1` [Compound 105, N-(6-methylpyridin-2-yl)quinolin-3-amine], 3.25. The value for `Cc1ccc(Nc2ccc3ncccc3c2)nc1` [Compound 107, N-(5-methylpyridin-2-yl)quinolin-6-amine] was 2.2; that for `COc1cccnc1Nc1ccc2ncccc2c1` [Compound 108, N-(3-methoxypyridin-2-yl)quinolin-6-amine] was 4.57; that for `c1ccc2nc(Nc3cnccn3)ccc2c1` [Compound 113, N-(pyrazin-2-yl)quinolin-2-amine] was 2.28. The value for `c1ccc2nc(Nc3ccncc3)ccc2c1` [Compound 120, N-(pyridin-4-yl)quinolin-2-amine] was 2.38; that for `COc1ccc(Nc2cnc3ccccc3c2)cc1` [Compound 123, N-(4-methoxyphenyl)quinolin-3-amine] was 2.94; that for `Cc1cc(OC(F)(F)F)ccc1Nc1cnc2ccccc2n1` [Compound 125, N-[2-methyl-4-(trifluoromethoxy)phenyl]quinoxalin-2-amine] was 2.59. For `c1cnc(Nc2ccc3ccccc3n2)nc1` [Compound 128, N-(pyrimidin-2-yl)quinolin-2-amine], the fold induction at 5 µM was found to be 3.08.

Take `c1ccc(Nc2cnc3ccccc3n2)nc1` [Compound 135, N-(pyridin-2-yl)quinoxalin-2-amine]: the fold induction at 5 µM came out at 4.58. The value for `N#Cc1ccc(Nc2cnc3ccccc3n2)nc1` [Compound 137, 6-(quinoxalin-2-ylamino)pyridine-3-carbonitrile] was 4.64; that for `Cc1cccc(Nc2cnc3ccccc3n2)n1` [Compound 138, N-(6-methylpyridin-2-yl)quinoxalin-2-amine] was 8.22; that for `c1cnc(Nc2cnc3ccccc3n2)nc1` [Compound 142, N-(pyrimidin-2-yl)quinoxalin-2-amine] was 4.47.
